The text below walks through data of ChEMBL document CHEMBL1821617, “Monanchocidins B-E: polycyclic guanidine alkaloids with potent antileukemic activities from the sponge Monanchora pulchra” (J Nat Prod, 2011).

The subject of the experiment is HL-60. Nature of the experiment: Cytotoxicity against human HL60 cells after 72 hrs by MTS assay. The conditions noted are these: HL-60, 72 h. The format is functional, cell-based. In general terms: Tetrazolium assays rely on reduction of a dye to a coloured formazan, in cell work by metabolically active cells.
In turn, `CC[C@@H]1C=CCC[C@]2(C[C@H]3CC[C@H]4[C@@H](C(=O)OCCCCCCCCCCCCCC[C@@H]5O[C@](O)(CCN)[C@H](O)N(CCCN)C5=O)[C@@]5(CCC[C@H](C)O5)NC(=[N+]34)N2)O1` [MONANCHOCIDIN B] gave an IC50 of 200 nM.
As for `CC/C=C/[C@@H]1CC[C@]2(C[C@H]3CC[C@H]4[C@@H](C(=O)OCCCCCCCCCCCCCC[C@@H]5O[C@](O)(CCN)[C@H](O)N(CCCN)C5=O)[C@@]5(CCC[C@H](C)O5)NC(=[N+]34)N2)O1` [MONANCHOCIDIND], the figure is 830 nM; as for `CC(=O)O[C@H]1C(=O)[C@@]2(C)[C@H]([C@H](OC(=O)c3ccccc3)[C@]3(O)C[C@H](OC(=O)[C@H](O)[C@@H](NC(=O)c4ccccc4)c4ccccc4)C(C)=C1C3(C)C)[C@]1(OC(C)=O)CO[C@@H]1C[C@@H]2O` [PACLITAXEL], 3.4 nM; as for `CC/C=C/[C@@H]1CC[C@]2(C[C@H]3CC[C@H]4[C@@H](C(=O)OC(CC)CCCCCCCCCCCC[C@@H]5O[C@](O)(CCN)[C@H](O)N(CCCN)C5=O)[C@@]5(CCC[C@H](C)O5)NC(=[N+]34)N2)O1` (stereo partly specified) [MONANCHOCIDIN E], 650 nM.
Compound `CC/C=C/[C@@H]1CC[C@]2(C[C@H]3CC[C@H]4[C@@H](C(=O)OC(CC)CCCCCCCCCCCCC[C@@H]5O[C@](O)(CCN)[C@H](O)N(CCCN)C5=O)[C@@]5(CCC[C@H](C)O5)NC(=[N+]34)N2)O1` (stereo partly specified) [MONANCHOCIDIN A] registered an IC50 of 540 nM.
`CC[C@@H]1C=CCC[C@]2(C[C@H]3CC[C@H]4[C@@H](C(=O)OCCCCCCCCCCCCCCC[C@@H]5O[C@](O)(CCN)[C@H](O)N(CCCN)C5=O)[C@@]5(CCC[C@H](C)O5)NC(=[N+]34)N2)O1` [MONANCHOCIDIN C]: the IC50 was 110 nM.

The term IC50 denotes the concentration that gives 50% inhibition. Read a high IC50 as weaker potency.
